# Reference: US20250011368A1, “DLL3 TARGETING PEPTIDES AND CONSTRUCTS THEREOF” (MARIANA ONCOLOGY INC., priority 2023, published 2025)
# pKd: −log10 of the molar value. Bridge positions count the residues as written; N and C are the ends. Square brackets hold non-standard residues; d marks the D form. Side chains are listed from the residue outwards. Peptide text beside a SMILES is read from it. * marks the point of attachment. ξ: configuration not given here. DOTA = O=C(O)CN1CCN(CC(=O)O)CCN(CC(=O)*)CCN(CC(=O)O)CC1; Trp(5-F) = N[C@@H](Cc1c[nH]c2ccc(F)cc12)C(=O)O; Trp(7-aza) = N[C@@H](Cc1c[nH]c2ncccc12)C(=O)O; Pro(trans-4-F) = O=C(O)[C@@H]1C[C@@H](F)CN1; 2Nal = N[C@@H](Cc1ccc2ccccc2c1)C(=O)O; ξW = NC(Cc1c[nH]c2ccccc12)C(=O)O; Thr(3ξ) = CC(O)[C@H](N)C(=O)O; Cba = N[C@@H](CC1CCC1)C(=O)O; Chg = N[C@H](C(=O)O)C1CCCCC1; PEG4 = NCCOCCOCCOCCOCCC(=O)O; Tle = CC(C)(C)[C@H](N)C(=O)O
# Target: T1, human DLL3 (Homo sapiens, UniProt Q9NYJ7)
# T1 sequence (Q9NYJ7 27-618): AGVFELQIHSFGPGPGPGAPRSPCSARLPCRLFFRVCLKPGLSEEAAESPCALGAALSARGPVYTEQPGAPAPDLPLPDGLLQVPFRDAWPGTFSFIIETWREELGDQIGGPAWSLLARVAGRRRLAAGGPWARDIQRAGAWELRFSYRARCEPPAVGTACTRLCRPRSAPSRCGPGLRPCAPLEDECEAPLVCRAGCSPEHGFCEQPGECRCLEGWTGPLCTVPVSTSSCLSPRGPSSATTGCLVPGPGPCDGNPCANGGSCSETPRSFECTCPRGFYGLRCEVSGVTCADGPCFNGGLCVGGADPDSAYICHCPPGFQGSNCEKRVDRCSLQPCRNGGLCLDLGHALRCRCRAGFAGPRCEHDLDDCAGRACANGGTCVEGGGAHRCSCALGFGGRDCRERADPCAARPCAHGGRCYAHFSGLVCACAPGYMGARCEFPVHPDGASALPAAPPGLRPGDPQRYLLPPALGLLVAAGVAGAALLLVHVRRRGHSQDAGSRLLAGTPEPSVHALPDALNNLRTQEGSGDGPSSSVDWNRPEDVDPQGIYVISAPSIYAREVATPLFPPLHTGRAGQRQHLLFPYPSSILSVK
# Experiment: Affinity determination by Surface Plasmon Resonance (SPR)
# Type: binding
# Conditions: 25° C., biotinylated human DLL3 immobilized on streptavidin sensor chip, 1:1 binding model; read-out: SPR KD
# How it was run: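 Kinetic and affinity constants were derived by fitting sensorgrams to a 1:1 binding model. Graded compound concentrations flowed at 100 μL/minute in 20 mM phosphate running buffer with 2% DMSO over streptavidin-immobilized biotinylated human DLL3, reference-subtracted.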
row,SMILES,pKd
1,"CC[C@H](C)[C@H](NC(=O)[C@@H](NC(=O)C(Cc1c[nH]c2ccccc12)NC(C)=O)C(C)O)C(=O)N[C@H]1CSSC[C@@H](C(=O)N[C@@H](Cc2c[nH]c3ccccc23)C(=O)N2CCC[C@H]2C(=O)N[C@H](CCCCNC(=O)CCOCCOCCOCCOCCNC(=O)CN2CCN(CC(=O)O)CCN(CC(=O)O)CCN(CC(=O)O)CC2)C(N)=O)NC(=O)[C@H](CC(=O)O)NC(=O)[C@H](Cc2cnc[nH]2)NC(=O)[C@H](Cc2ccc3ccccc3c2)NC(=O)[C@H](CC(N)=O)NC(=O)[C@H](CC(N)=O)NC1=O (stereo partly drawn) [compound 271, Ac-W-T-I-C(3)-N-N-(2Nal)-H-D-C(3)-W-P-[D-Lys(PEG4-DOTA)]-NH2] (Ac-[ξW][Thr(3ξ)]ICNN[2Nal]HDCWP[dK]([PEG4-DOTA])-NH2; disulfide 4-10)",> 9.00
2,"CC[C@H](C)[C@H](NC(=O)[C@@H](NC(=O)[C@H](Cc1c[nH]c2ccccc12)NC(C)=O)[C@@H](C)O)C(=O)N[C@H]1CSSC[C@@H](C(=O)N[C@@H](Cc2c[nH]c3ccccc23)C(=O)N2CCC[C@H]2C(=O)N[C@H](CCCCNC(=O)CN2CCN(CC(=O)O)CCN(CC(=O)O)CCN(CC(=O)O)CC2)C(N)=O)NC(=O)[C@H](CC(=O)O)NC(=O)[C@H](CCC(=O)O)NC(=O)[C@H](Cc2c[nH]c3ccccc23)NC(=O)[C@H](CC(N)=O)NC(=O)[C@H](CCC(=O)O)NC1=O [compound 273, Ac-W-T-I-C(3)-Glu-N-W-Glu-D-C(3)-W-P-[D-Lys(DOTA)]-NH2] (Ac-WTICENWEDCWP[dK](DOTA)-NH2; disulfide 4-10)",8.00 to 9.00
3,"CC[C@H](C)[C@H](NC(=O)[C@@H](NC(=O)[C@H](Cc1c[nH]c2ccccc12)NC(C)=O)[C@@H](C)O)C(=O)N[C@H]1CSSC[C@@H](C(=O)N[C@@H](Cc2c[nH]c3ccccc23)C(=O)N2CCC[C@H]2C(=O)N[C@H](CCCCNC(=O)CN2CCN(CC(=O)O)CCN(CC(=O)O)CCN(CC(=O)O)CC2)C(N)=O)NC(=O)[C@H](CC(=O)O)NC(=O)[C@H](CCC(=O)O)NC(=O)[C@H](Cc2c[nH]c3ccccc23)NC(=O)[C@H](CC(N)=O)NC(=O)[C@H](CC(N)=O)NC1=O [compound 274, Ac-W-T-I-C(3)-N-N-W-Glu-D-C(3)-W-P-[D-Lys(DOTA)]-NH2] (Ac-WTICNNWEDCWP[dK](DOTA)-NH2; disulfide 4-10)",8.00 to 9.00
4,"CC[C@H](C)[C@H](NC(=O)[C@@H](NC(=O)[C@H](Cc1c[nH]c2ccccc12)NC(C)=O)[C@@H](C)O)C(=O)N[C@H]1CSSC[C@@H](C(=O)N[C@@H](Cc2c[nH]c3ccccc23)C(=O)N2CCC[C@H]2C(=O)N[C@H](CCCCNC(=O)CN2CCN(CC(=O)O)CCN(CC(=O)O)CCN(CC(=O)O)CC2)C(N)=O)NC(=O)[C@H](CC(=O)O)NC(=O)[C@H](CCC(=O)O)NC(=O)[C@H](Cc2c[nH]c3ccccc23)NC(=O)[C@H](CCC(=O)O)NC(=O)[C@H](CCC(=O)O)NC1=O [compound 275, Ac-W-T-I-C(3)-Glu-Glu-W-Glu-D-C(3)-W-P-[D-Lys(DOTA)]-NH2] (Ac-WTICEEWEDCWP[dK](DOTA)-NH2; disulfide 4-10)",8.00 to 9.00
5,"CC[C@H](C)[C@H](NC(=O)[C@@H](NC(=O)[C@H](Cc1c[nH]c2ccccc12)NC(C)=O)[C@@H](C)O)C(=O)N[C@H]1CSSC[C@@H](C(=O)N[C@@H](Cc2c[nH]c3ccccc23)C(=O)N2CCC[C@H]2C(=O)N[C@H](CCCCNC(=O)CN2CCN(CC(=O)O)CCN(CC(=O)O)CCN(CC(=O)O)CC2)C(N)=O)NC(=O)[C@H](CC(=O)O)NC(=O)[C@H](CCC(=O)O)NC(=O)[C@H](Cc2c[nH]c3ccccc23)NC(=O)[C@H](CCC(=O)O)NC(=O)[C@H](CC(N)=O)NC1=O [compound 276, Ac-W-T-I-C(3)-N-Glu-W-Glu-D-C(3)-W-P-[D-Lys(DOTA)]-NH2] (Ac-WTICNEWEDCWP[dK](DOTA)-NH2; disulfide 4-10)",7.00 to 8.00
6,"CC[C@H](C)[C@H](NC(=O)[C@@H](NC(=O)[C@H](Cc1c[nH]c2ccccc12)NC(C)=O)[C@@H](C)O)C(=O)N[C@H]1CSSC[C@@H](C(=O)N[C@@H](Cc2c[nH]c3ccccc23)C(=O)N2CCC[C@H]2C(=O)N[C@H](CCCCNC(=O)CN2CCN(CC(=O)O)CCN(CC(=O)O)CCN(CC(=O)O)CC2)C(N)=O)NC(=O)[C@H](CC(=O)O)NC(=O)[C@H](Cc2cnc[nH]2)NC(=O)[C@H](Cc2c[nH]c3ccccc23)NC(=O)[C@H](CC(N)=O)NC(=O)[C@H](CCC(=O)O)NC1=O [compound 277, Ac-W-T-I-C(3)-Glu-N-W-H-D-C(3)-W-P-[D-Lys(DOTA)]-NH2] (Ac-WTICENWHDCWP[dK](DOTA)-NH2; disulfide 4-10)",> 9.00
7,"CC[C@H](C)[C@H](NC(=O)[C@@H](NC(=O)[C@H](Cc1c[nH]c2ccccc12)NC(C)=O)[C@@H](C)O)C(=O)N[C@H]1CSSC[C@@H](C(=O)N[C@@H](Cc2c[nH]c3ccccc23)C(=O)N2CCC[C@H]2C(=O)N[C@H](CCCCNC(=O)CN2CCN(CC(=O)O)CCN(CC(=O)O)CCN(CC(=O)O)CC2)C(N)=O)NC(=O)[C@H](CC(=O)O)NC(=O)[C@H](Cc2cnc[nH]2)NC(=O)[C@H](Cc2c[nH]c3ccccc23)NC(=O)[C@H](CCC(=O)O)NC(=O)[C@H](CCC(=O)O)NC1=O [compound 278, Ac-W-T-I-C(3)-Glu-Glu-W-H-D-C(3)-W-P-[D-Lys(DOTA)]-NH2] (Ac-WTICEEWHDCWP[dK](DOTA)-NH2; disulfide 4-10)",8.00 to 9.00

# Results, then the compound that gave them:
row,pKd,SMILES
1,> 9.00,"CC(=O)N[C@@H](Cc1c[nH]c2ccc(F)cc12)C(=O)N[C@H](C(=O)N[C@H](C(=O)N[C@H]1CSSC[C@@H](C(=O)N[C@@H](Cc2c[nH]c3ncccc23)C(=O)N2C[C@H](F)C[C@H]2C(=O)N[C@H](CCCCNC(=O)CN2CCN(CC(=O)O)CCN(CC(=O)O)CCN(CC(=O)O)CC2)C(N)=O)NC(=O)[C@H](CC(=O)O)NC(=O)[C@H](Cc2cnc[nH]2)NC(=O)[C@H](Cc2ccc3ccccc3c2)NC(=O)[C@H](CC(N)=O)NC(=O)[C@H](CC(N)=O)NC1=O)C(C)(C)C)[C@@H](C)O [compound 257, Ac-(5Fluoro-W)-T-(Tbg)-C(3)-N-N-(2Nal)-H-D-C(3)-(7Aza-W)-(trans4Fluoro-P)-[D-Lys(DOTA)]-NH2] (Ac-[Trp(5-F)]T[Tle]CNN[2Nal]HDC[Trp(7-aza)][Pro(trans-4-F)][dK](DOTA)-NH2; disulfide 4-10)"
2,> 9.00,"CC(=O)N[C@@H](Cc1c[nH]c2ccc(F)cc12)C(=O)N[C@H](C(=O)N[C@H](C(=O)N[C@H]1CSSC[C@@H](C(=O)N[C@@H](Cc2c[nH]c3ncccc23)C(=O)N2C[C@H](F)C[C@H]2C(=O)N[C@H](CCCCNC(=O)CN2CCN(CC(=O)O)CCN(CC(=O)O)CCN(CC(=O)O)CC2)C(N)=O)NC(=O)[C@H](CC(=O)O)NC(=O)[C@H](Cc2cnc[nH]2)NC(=O)[C@H](Cc2ccc3ccccc3c2)NC(=O)[C@H](CC(N)=O)NC(=O)[C@H](CC(N)=O)NC1=O)C1CCCCC1)[C@@H](C)O [compound 258, Ac-(5Fluoro-W)-T-(Chg)-C(3)-N-N-(2Nal)-H-D-C(3)-(7Aza-W)-(trans4Fluoro-P)-[D-Lys(DOTA)]-NH2] (Ac-[Trp(5-F)]T[Chg]CNN[2Nal]HDC[Trp(7-aza)][Pro(trans-4-F)][dK](DOTA)-NH2; disulfide 4-10)"
3,> 9.00,"CC[C@H](C)[C@H](NC(=O)[C@@H](NC(=O)[C@H](Cc1c[nH]c2ccccc12)NC(C)=O)[C@@H](C)O)C(=O)N[C@H]1CSSC[C@@H](C(=O)N[C@@H](Cc2c[nH]c3ccccc23)C(=O)N2CCC[C@H]2C(=O)N[C@H](CCCCNC(=O)CN2CCN(CC(=O)O)CCN(CC(=O)O)CCN(CC(=O)O)CC2)C(=O)O)NC(=O)[C@H](CC(=O)O)NC(=O)[C@H](Cc2cnc[nH]2)NC(=O)[C@H](Cc2ccc3ccccc3c2)NC(=O)[C@H](CC(N)=O)NC(=O)[C@H](CC(N)=O)NC1=O [compound 262, Ac-W-T-I-C(3)-N-N-(2Nal)-H-D-C(3)-W-P-[D-Lys(DOTA)]-OH] (Ac-WTICNN[2Nal]HDCWP[dK](DOTA)-OH; disulfide 4-10)"
4,> 9.00,"CC(=O)N[C@@H](Cc1c[nH]c2ccc(F)cc12)C(=O)N[C@H](C(=O)N[C@@H](CC1CCC1)C(=O)N[C@H]1CSSC[C@@H](C(=O)N[C@@H](Cc2c[nH]c3ncccc23)C(=O)N2C[C@H](F)C[C@H]2C(=O)N[C@@H](CCCCNC(=O)CN2CCN(CC(=O)O)CCN(CC(=O)O)CCN(CC(=O)O)CC2)C(N)=O)NC(=O)[C@H](CC(=O)O)NC(=O)[C@H](Cc2cnc[nH]2)NC(=O)[C@H](Cc2ccc3ccccc3c2)NC(=O)[C@H](CC(N)=O)NC(=O)[C@H](CC(N)=O)NC1=O)[C@@H](C)O [compound 269, Ac-(5Fluoro-W)-T-(CBA)-C(3)-N-N-(2Nal)-H-D-C(3)-(7Aza-W)-(trans4Fluoro-P)-[D-Lys(DOTA)]-NH2] (Ac-[Trp(5-F)]T[Cba]CNN[2Nal]HDC[Trp(7-aza)][Pro(trans-4-F)]K(DOTA)-NH2; disulfide 4-10)"
5,> 9.00,"CC[C@H](C)[C@H](NC(=O)[C@@H](NC(=O)C(Cc1c[nH]c2ccccc12)NC(C)=O)C(C)O)C(=O)N[C@H]1CSSC[C@@H](C(=O)N[C@@H](Cc2c[nH]c3ccccc23)C(=O)N2CCC[C@H]2C(=O)NCCOCCOCCOCCOCCC(=O)N[C@H](CCCCNC(=O)CN2CCN(CC(=O)O)CCN(CC(=O)O)CCN(CC(=O)O)CC2)C(N)=O)NC(=O)[C@H](CC(=O)O)NC(=O)[C@H](Cc2cnc[nH]2)NC(=O)[C@H](Cc2ccc3ccccc3c2)NC(=O)[C@H](CC(N)=O)NC(=O)[C@H](CC(N)=O)NC1=O (stereo partly drawn) [compound 270, Ac-W-T-I-C(3)-N-N-(2Nal)-H-D-C(3)-W-P-PEG4-[D-Lys(DOTA)]-NH2] (Ac-[ξW][Thr(3ξ)]ICNN[2Nal]HDCWP[PEG4][dK](DOTA)-NH2; disulfide 4-10)"
